Experimental data: patent publication US5030760A, “Tetrahydrophthalimides, and their production and use” (Sumitomo Chemical Company, Ltd., priority 1981, dated 1991)

tested on: slender spikerush; test: Test Example 7, flooded paddy pot dripping, herbicidal activity; type: in vivo, Eleocharis acicularis; details: 1.25 g/are, 3 weeks
Method: (§1) The application of the tetrahydrophthalimides (I) as herbicides will be illustratively shown in the following Examples wherein the phytotoxicity to cultivated plants and the herbicidal activity on weeds were evaluated as follows: the aerial parts of the test plants were cut off and weighed (fresh weight); the percentage of the fresh weight of the treated plant to that of the untreated plant was calculated with the latter fresh weight taken as 100; and the crop damage and the herbicidal activity were evaluated by the standard given in the table below. The rating values of phytotoxicity, 0 and 1, and those of herbicidal effect, 5 and 4, are generally regarded as satisfactory to protect cultivated plants and control weeds, respectively. The rating values in the paddy field test alone were calculated from the dry weight of the test plants.
(§2) Wagner's pots (1/5000 are) were filled with paddy field soil and water was poured therein to make a flooded condition. Rice seedlings of the 3-leaf stage were transplanted and tubers of slender spikerush and arrowhead and the seeds of barnyardgrass, monochoria and broad-leaved weed were sowed therein and grown for 5 days. When germination occurs, a designed amount of the test compound formulated into an emulsifiable concentrate according to Preparation Example 2 was applied to the pots by dripping. The test plants were grown for a further 3 weeks, and herbicidal activity and phytotoxicity were examined. The herbicidal activity was evaluated in figures ranging from 0 to 5. The phytotoxicity to the crop plants was also indicated on the same standard as that of the herbicidal activity.
Further: ranges in brackets are in %.

| Structure (SMILES) | Herbicidal activity, Slender spikerush |
| --- | --- |
| CCCCCCCCOc1cc(N2C(=O)C3=C(CCCC3)C2=O)c(F)cc1Cl [Compound No. 10] | 3 (50-69) |
| CCCCCCOc1cc(N2C(=O)C3=C(CCCC3)C2=O)c(F)cc1Cl [compound 8] | 4 (70-89) |
| CCCCCCCOc1cc(N2C(=O)C3=C(CCCC3)C2=O)c(F)cc1Cl [compound 9] | 3 (50-69) |
| CC(C)CCOc1cc(N2C(=O)C3=C(CCCC3)C2=O)c(F)cc1Cl [compound 11] | 4 (70-89) |

same assay, conditions: 2.5 g/are, 3 weeks

| Structure (SMILES) | Herbicidal activity, Slender spikerush |
| --- | --- |
| CCCCCCCCOc1cc(N2C(=O)C3=C(CCCC3)C2=O)c(F)cc1Cl [Compound No. 10] | 3 (50-69) |
| CCCCCCOc1cc(N2C(=O)C3=C(CCCC3)C2=O)c(F)cc1Cl [compound 8] | 4 (70-89) |
| CCCCCCCOc1cc(N2C(=O)C3=C(CCCC3)C2=O)c(F)cc1Cl [compound 9] | 4 (70-89) |
| CC(C)CCOc1cc(N2C(=O)C3=C(CCCC3)C2=O)c(F)cc1Cl [compound 11] | 4 (70-89) |

same assay, conditions: 5 g/are, 3 weeks

| Structure (SMILES) | Herbicidal activity, Slender spikerush |
| --- | --- |
| CCCCCCCCOc1cc(N2C(=O)C3=C(CCCC3)C2=O)c(F)cc1Cl [Compound No. 10] | 4 (70-89) |
| CCCCCCOc1cc(N2C(=O)C3=C(CCCC3)C2=O)c(F)cc1Cl [compound 8] | 5 (90-100) |
| CCCCCCCOc1cc(N2C(=O)C3=C(CCCC3)C2=O)c(F)cc1Cl [compound 9] | 4 (70-89) |
| CC(C)CCOc1cc(N2C(=O)C3=C(CCCC3)C2=O)c(F)cc1Cl [compound 11] | 5 (90-100) |

tested on: monochoria; test: as above; type: in vivo, Monochoria vaginalis; details: 1.25 g/are, 3 weeks
Method: as §1, §2

| Structure (SMILES) | Herbicidal activity, Monochoria |
| --- | --- |
| CCCCCCCCOc1cc(N2C(=O)C3=C(CCCC3)C2=O)c(F)cc1Cl [Compound No. 10] | 5 (90-100) |
| CCCCCCOc1cc(N2C(=O)C3=C(CCCC3)C2=O)c(F)cc1Cl [compound 8] | 5 (90-100) |
| CCCCCCCOc1cc(N2C(=O)C3=C(CCCC3)C2=O)c(F)cc1Cl [compound 9] | 5 (90-100) |
| CC(C)CCOc1cc(N2C(=O)C3=C(CCCC3)C2=O)c(F)cc1Cl [compound 11] | 5 (90-100) |

same assay, conditions: 2.5 g/are, 3 weeks

| Structure (SMILES) | Herbicidal activity, Monochoria |
| --- | --- |
| CCCCCCCCOc1cc(N2C(=O)C3=C(CCCC3)C2=O)c(F)cc1Cl [Compound No. 10] | 5 (90-100) |
| CCCCCCOc1cc(N2C(=O)C3=C(CCCC3)C2=O)c(F)cc1Cl [compound 8] | 5 (90-100) |
| CCCCCCCOc1cc(N2C(=O)C3=C(CCCC3)C2=O)c(F)cc1Cl [compound 9] | 5 (90-100) |
| CC(C)CCOc1cc(N2C(=O)C3=C(CCCC3)C2=O)c(F)cc1Cl [compound 11] | 5 (90-100) |

same assay, conditions: 5 g/are, 3 weeks

| Structure (SMILES) | Herbicidal activity, Monochoria |
| --- | --- |
| CCCCCCCCOc1cc(N2C(=O)C3=C(CCCC3)C2=O)c(F)cc1Cl [Compound No. 10] | 5 (90-100) |
| CCCCCCOc1cc(N2C(=O)C3=C(CCCC3)C2=O)c(F)cc1Cl [compound 8] | 5 (90-100) |
| CCCCCCCOc1cc(N2C(=O)C3=C(CCCC3)C2=O)c(F)cc1Cl [compound 9] | 5 (90-100) |
| CC(C)CCOc1cc(N2C(=O)C3=C(CCCC3)C2=O)c(F)cc1Cl [compound 11] | 5 (90-100) |

tested on: broad-leaved weed; test: as above; type: in vivo; details: 1.25 g/are, 3 weeks
Method: as §1, §2

| Structure (SMILES) | Herbicidal activity, Broad-leaved weed |
| --- | --- |
| CCCCCCCCOc1cc(N2C(=O)C3=C(CCCC3)C2=O)c(F)cc1Cl [Compound No. 10] | 5 (90-100) |
| CCCCCCOc1cc(N2C(=O)C3=C(CCCC3)C2=O)c(F)cc1Cl [compound 8] | 5 (90-100) |
| CCCCCCCOc1cc(N2C(=O)C3=C(CCCC3)C2=O)c(F)cc1Cl [compound 9] | 5 (90-100) |
| CC(C)CCOc1cc(N2C(=O)C3=C(CCCC3)C2=O)c(F)cc1Cl [compound 11] | 5 (90-100) |

same assay, conditions: 2.5 g/are, 3 weeks

| Structure (SMILES) | Herbicidal activity, Broad-leaved weed |
| --- | --- |
| CCCCCCCCOc1cc(N2C(=O)C3=C(CCCC3)C2=O)c(F)cc1Cl [Compound No. 10] | 5 (90-100) |
| CCCCCCOc1cc(N2C(=O)C3=C(CCCC3)C2=O)c(F)cc1Cl [compound 8] | 5 (90-100) |
| CCCCCCCOc1cc(N2C(=O)C3=C(CCCC3)C2=O)c(F)cc1Cl [compound 9] | 5 (90-100) |
| CC(C)CCOc1cc(N2C(=O)C3=C(CCCC3)C2=O)c(F)cc1Cl [compound 11] | 5 (90-100) |

same assay, conditions: 5 g/are, 3 weeks

| Structure (SMILES) | Herbicidal activity, Broad-leaved weed |
| --- | --- |
| CCCCCCCCOc1cc(N2C(=O)C3=C(CCCC3)C2=O)c(F)cc1Cl [Compound No. 10] | 5 (90-100) |
| CCCCCCOc1cc(N2C(=O)C3=C(CCCC3)C2=O)c(F)cc1Cl [compound 8] | 5 (90-100) |
| CCCCCCCOc1cc(N2C(=O)C3=C(CCCC3)C2=O)c(F)cc1Cl [compound 9] | 5 (90-100) |
| CC(C)CCOc1cc(N2C(=O)C3=C(CCCC3)C2=O)c(F)cc1Cl [compound 11] | 5 (90-100) |

tested on: arrowhead; test: as above; type: in vivo, Sagittaria pygmaea; details: 1.25 g/are, 3 weeks
Method: as §1, §2

| Structure (SMILES) | Herbicidal activity, Allowhead |
| --- | --- |
| CCCCCCCCOc1cc(N2C(=O)C3=C(CCCC3)C2=O)c(F)cc1Cl [Compound No. 10] | 3 (50-69) |
| CCCCCCOc1cc(N2C(=O)C3=C(CCCC3)C2=O)c(F)cc1Cl [compound 8] | 4 (70-89) |
| CCCCCCCOc1cc(N2C(=O)C3=C(CCCC3)C2=O)c(F)cc1Cl [compound 9] | 3 (50-69) |
| CC(C)CCOc1cc(N2C(=O)C3=C(CCCC3)C2=O)c(F)cc1Cl [compound 11] | 3 (50-69) |

same assay, conditions: 2.5 g/are, 3 weeks

| Structure (SMILES) | Herbicidal activity, Allowhead |
| --- | --- |
| CCCCCCCCOc1cc(N2C(=O)C3=C(CCCC3)C2=O)c(F)cc1Cl [Compound No. 10] | 4 (70-89) |
| CCCCCCOc1cc(N2C(=O)C3=C(CCCC3)C2=O)c(F)cc1Cl [compound 8] | 5 (90-100) |
| CCCCCCCOc1cc(N2C(=O)C3=C(CCCC3)C2=O)c(F)cc1Cl [compound 9] | 4 (70-89) |
| CC(C)CCOc1cc(N2C(=O)C3=C(CCCC3)C2=O)c(F)cc1Cl [compound 11] | 4 (70-89) |

same assay, conditions: 5 g/are, 3 weeks

| Structure (SMILES) | Herbicidal activity, Allowhead |
| --- | --- |
| CCCCCCCCOc1cc(N2C(=O)C3=C(CCCC3)C2=O)c(F)cc1Cl [Compound No. 10] | 4 (70-89) |
| CCCCCCOc1cc(N2C(=O)C3=C(CCCC3)C2=O)c(F)cc1Cl [compound 8] | 5 (90-100) |
| CCCCCCCOc1cc(N2C(=O)C3=C(CCCC3)C2=O)c(F)cc1Cl [compound 9] | 4 (70-89) |
| CC(C)CCOc1cc(N2C(=O)C3=C(CCCC3)C2=O)c(F)cc1Cl [compound 11] | 5 (90-100) |

tested on: rice plant; test: Test Example 7, flooded paddy pot dripping, phytotoxicity to rice plant; type: in vivo; details: 1.25 g/are, 3 weeks
Method: as §1, §2

| Structure (SMILES) | Phytotoxicity, Rice plant |
| --- | --- |
| CCCCCCCCOc1cc(N2C(=O)C3=C(CCCC3)C2=O)c(F)cc1Cl [Compound No. 10] | 0 (0-9) |
| CCCCCCOc1cc(N2C(=O)C3=C(CCCC3)C2=O)c(F)cc1Cl [compound 8] | 0 (0-9) |
| CCCCCCCOc1cc(N2C(=O)C3=C(CCCC3)C2=O)c(F)cc1Cl [compound 9] | 0 (0-9) |
| CC(C)CCOc1cc(N2C(=O)C3=C(CCCC3)C2=O)c(F)cc1Cl [compound 11] | 0 (0-9) |

same assay, conditions: 2.5 g/are, 3 weeks

| Structure (SMILES) | Phytotoxicity, Rice plant |
| --- | --- |
| CCCCCCCCOc1cc(N2C(=O)C3=C(CCCC3)C2=O)c(F)cc1Cl [Compound No. 10] | 0 (0-9) |
| CCCCCCOc1cc(N2C(=O)C3=C(CCCC3)C2=O)c(F)cc1Cl [compound 8] | 0 (0-9) |
| CCCCCCCOc1cc(N2C(=O)C3=C(CCCC3)C2=O)c(F)cc1Cl [compound 9] | 0 (0-9) |
| CC(C)CCOc1cc(N2C(=O)C3=C(CCCC3)C2=O)c(F)cc1Cl [compound 11] | 0 (0-9) |

same assay, conditions: 5 g/are, 3 weeks

| Structure (SMILES) | Phytotoxicity, Rice plant |
| --- | --- |
| CCCCCCCCOc1cc(N2C(=O)C3=C(CCCC3)C2=O)c(F)cc1Cl [Compound No. 10] | 0 (0-9) |
| CCCCCCOc1cc(N2C(=O)C3=C(CCCC3)C2=O)c(F)cc1Cl [compound 8] | 0 (0-9) |
| CCCCCCCOc1cc(N2C(=O)C3=C(CCCC3)C2=O)c(F)cc1Cl [compound 9] | 0 (0-9) |
| CC(C)CCOc1cc(N2C(=O)C3=C(CCCC3)C2=O)c(F)cc1Cl [compound 11] | 0 (0-9) |

tested on: barnyardgrass; test: Test Example 7, flooded paddy pot dripping, herbicidal activity; type: in vivo, Echinochloa crus-galli; details: 1.25 g/are, 3 weeks
Method: as §1, §2

| Structure (SMILES) | Herbicidal activity, Barnyardgrass |
| --- | --- |
| CCCCCCCCOc1cc(N2C(=O)C3=C(CCCC3)C2=O)c(F)cc1Cl [Compound No. 10] | 3 (50-69) |
| CCCCCCOc1cc(N2C(=O)C3=C(CCCC3)C2=O)c(F)cc1Cl [compound 8] | 4 (70-89) |
| CCCCCCCOc1cc(N2C(=O)C3=C(CCCC3)C2=O)c(F)cc1Cl [compound 9] | 4 (70-89) |
| CC(C)CCOc1cc(N2C(=O)C3=C(CCCC3)C2=O)c(F)cc1Cl [compound 11] | 4 (70-89) |

same assay, conditions: 2.5 g/are, 3 weeks

| Structure (SMILES) | Herbicidal activity, Barnyardgrass |
| --- | --- |
| CCCCCCCCOc1cc(N2C(=O)C3=C(CCCC3)C2=O)c(F)cc1Cl [Compound No. 10] | 4 (70-89) |
| CCCCCCOc1cc(N2C(=O)C3=C(CCCC3)C2=O)c(F)cc1Cl [compound 8] | 5 (90-100) |
| CCCCCCCOc1cc(N2C(=O)C3=C(CCCC3)C2=O)c(F)cc1Cl [compound 9] | 4 (70-89) |
| CC(C)CCOc1cc(N2C(=O)C3=C(CCCC3)C2=O)c(F)cc1Cl [compound 11] | 5 (90-100) |

same assay, conditions: 5 g/are, 3 weeks

| Structure (SMILES) | Herbicidal activity, Barnyardgrass |
| --- | --- |
| CCCCCCCCOc1cc(N2C(=O)C3=C(CCCC3)C2=O)c(F)cc1Cl [Compound No. 10] | 5 (90-100) |
| CCCCCCOc1cc(N2C(=O)C3=C(CCCC3)C2=O)c(F)cc1Cl [compound 8] | 5 (90-100) |
| CCCCCCCOc1cc(N2C(=O)C3=C(CCCC3)C2=O)c(F)cc1Cl [compound 9] | 5 (90-100) |
| CC(C)CCOc1cc(N2C(=O)C3=C(CCCC3)C2=O)c(F)cc1Cl [compound 11] | 5 (90-100) |
